From patent EP4768499A1, “MACROCYCLIC PEPTIDE COMPOUND HAVING CELL MEMBRANE PERMEABILITY AND METABOLIC STABILITY, AND LIBRARY CONTAINING SAME” (Chugai Seiyaku Kabushiki Kaisha, priority 2023, dated 2025)
Read-outs that look alike come from different tables or passages of the source. Starred links: 1 amine or outer side, 2 acyl side, 3 side chain; linkers in the order of their positions; H or OH if unused. Non-standard residues stand in square brackets, D forms with d. Residues, ends and D or L forms follow the SMILES beside them. *: point of attachment. NMedβ3hAla = C[C@H](CC(=O)[*:2])N(C)[*:1]; NMeF = CN[C@@H](Cc1ccccc1)C(=O)O; NMeGABA = CN(CCCC(=O)[*:2])[*:1]; NMeI = CC[C@H](C)[C@H](NC)C(=O)O; NMeT = CN[C@H](C(=O)O)[C@@H](C)O; hPhe = N[C@@H](CCc1ccccc1)C(=O)O; NMeβAla = CN(CCC(=O)[*:2])[*:1]; NMeL = CN[C@@H](CC(C)C)C(=O)O; NMeV = CN[C@H](C(=O)O)C(C)C; d(β3hA) = C[C@@H](N)CC(=O)O; NMeAbu = CC[C@H](NC)C(=O)O; NMeA = CN[C@@H](C)C(=O)O; dNMeA = CN[C@H](C)C(=O)O; Abu = CC[C@H](N)C(=O)O; βAla = NCCC(=O)O; Sar = CNCC(=O)O; tBu = CC(C)(C)*

What was measured:
[1] = Metabolic stability test: liver microsomal stability assay; type: in vitro ADME, mouse; details: for microsomal CLint at 1 µM: male, pH 7.4, presence of NADPH, read-out: Mouse Hepatic Microsome CLh,int NADPH(+)
[2] = Membrane permeability test using Caco-2 cells with preincubation; type: in vitro ADME; details: Caco-2
Caco-2 cells = assay: as above; type: in vitro ADME
[3] = mouse liver microsomes 0.5 mg protein/mL, compound 1 µM
[4] = mouse liver microsomes 0.5 mg protein/mL, compound 1 µM, absence of NADPH
[5] = preincubation 20 to 24 hours, Apical FaSSIF/HBSS pH 6.0, Basal HBSS 4% BSA pH 7.4, 180 minutes, read-out: Caco2 Papp
[6] = Caco-2 cells, preincubation 20 to 24 hours, apical FaSSIF/HBSS 1% DMSO pH 6.0, basal HBSS 4% BSA pH 7.4, basal sample at 180 minutes

Row | Compound | microsomal CLint at 1 µM [1, 3] [µL/min/mg] | Mouse Hepatic Microsome CLh,int NADPH(-) [1, 4] [µL/min/mg Protein] | Papp A→B [2, 5] [×10⁻⁶ cm/s] | Caco2 Papp (10^-6 cm/sec) (Caco-2 cells; [6]) | Mouse Hepatic Microsome CLh,int NADPH(-) [1] [µL/min/mg Protein] | Papp A→B [2] [×10⁻⁶ cm/s] | Caco2 Papp (10^-6 cm/sec) (Caco-2 cells; Caco-2)
1 | CC[C@H](C)[C@@H]1NC(=O)[C@H](CCc2ccccc2)NC(=O)[C@H](CC(C)C)N(C)C(=O)[C@H](C)N(C)C(=O)[C@H](Cc2ccccc2)N(C)C(=O)[C@@H]2CCCN2C(=O)[C@H]([C@@H](C)CC)NC(=O)[C@H](CC(C)C)N(C)C(=O)CCN(C)C(=O)C[C@@H](C)NC(=O)[C@H](CC(C)C)N(C)C(=O)[C@H]([C@@H](C)O)NC(=O)[C@H](C)N(C)C1=O [pd133] (cyclo(I[NMeA]T[NMeL][d(β3hA)][NMeβAla][NMeL]IP[NMeF][NMeA][NMeL][hPhe])) | 25.6 | 23.6 | 0.53 | 0.53 10^-6 cm/sec | – | – | –
2 | CC[C@H](C)[C@@H]1NC(=O)[C@H](CC(C)C)N(C)C(=O)[C@H](C)N(C)C(=O)[C@H](C)N(C)C(=O)C[C@@H](C)NC(=O)[C@H](CC(C)C)NC(=O)[C@H](CC(C)C)N(C)C(=O)CN(C)C(=O)[C@H]([C@@H](C)O)NC(=O)[C@H]([C@@H](C)CC)N(C)C(=O)[C@H](CC(C)C)N(C)C(=O)[C@H](C(C)C)NC(=O)[C@H](Cc2ccccc2)N(C)C1=O [pd134] (cyclo(I[NMeF]V[NMeL][NMeI]T[Sar][NMeL]L[d(β3hA)][NMeA][NMeA][NMeL])) | 38.5 | 11.4 | 0.75 | 0.75 10^-6 cm/sec | – | – | –
3 | CC[C@H](C)[C@@H]1NC(=O)[C@@H]2CCCN2C(=O)[C@H](C(C)C)N(C)C(=O)[C@@H](C)N(C)C(=O)C[C@@H](C)NC(=O)[C@H](C(C)C)N(C)C(=O)[C@H](Cc2ccccc2)N(C)C(=O)[C@H](COC(C)(C)C)NC(=O)[C@H](CC(C)C)N(C)C(=O)[C@H](C)N(C)C(=O)[C@H](CC(C)C)N(C)C(=O)[C@H]([C@@H](C)O)NC(=O)[C@H](Cc2ccccc2)N(C)C1=O [pd136] (cyclo(I[NMeF]T[NMeL][NMeA][NMeL]S(tBu)[NMeF][NMeV][d(β3hA)][dNMeA][NMeV]P)) | 27.2 | 28.8 | 0.53 | 0.53 10^-6 cm/sec | – | – | –
4 | CC[C@H](C)[C@@H]1NC(=O)[C@H](C)N(C)C(=O)CCCN(C)C(=O)C[C@@H](C)NC(=O)[C@H](C(C)C)N(C)C(=O)[C@H](CCc2ccccc2)NC(=O)[C@H](C)N(C)C(=O)[C@H]([C@@H](C)O)N(C)C(=O)[C@H](CC(C)C)N(C)C(=O)[C@H](C(C)C)NC(=O)[C@H](Cc2ccccc2)N(C)C(=O)[C@H](C)N(C)C(=O)[C@H](C(C)C)N(C)C1=O [pd137] (cyclo(I[NMeV][NMeA][NMeF]V[NMeL][NMeT][NMeA][hPhe][NMeV][d(β3hA)][NMeGABA][NMeA])) | 14.1 | 7.5 | 0.55 | 0.55 10^-6 cm/sec | – | – | –
5 | CC[C@H](C)[C@@H]1NC(=O)[C@H](CC(C)C)N(C)C(=O)[C@H](C)N(C)C(=O)[C@H](Cc2ccccc2)N(C)C(=O)[C@@H]2CCCN2C(=O)[C@H](CC(C)C)N(C)C(=O)[C@H](CCc2ccccc2)NC(=O)CCN(C)C(=O)C[C@@H](C)NC(=O)[C@H](CC(C)C)N(C)C(=O)[C@H]([C@@H](C)O)NC(=O)CCN(C)C(=O)[C@H](C(C)C)N(C)C1=O [pd138] (cyclo(I[NMeV][NMeβAla]T[NMeL][d(β3hA)][NMeβAla][hPhe][NMeL]P[NMeF][NMeA][NMeL])) | 39.3 | 11.1 | 0.23 | 0.23 10^-6 cm/sec | – | – | –
6 | CC[C@H](C)[C@@H]1NC(=O)[C@H](CC(C)C)N(C)C(=O)C[C@@H](C)NC(=O)[C@H](C(C)C)N(C)C(=O)[C@H](COC(C)(C)C)NC(=O)[C@H](CC)N(C)C(=O)[C@H](Cc2ccccc2)N(C)C(=O)[C@H](CC(C)C)NC(=O)[C@@H]2CCCN2C(=O)[C@H]([C@@H](C)O)N(C)C(=O)[C@H](CC(C)C)N(C)C(=O)[C@H](CC)N(C)C(=O)[C@H](CC(C)C)N(C)C1=O [pd139] (cyclo(I[NMeL][NMeAbu][NMeL][NMeT]PL[NMeF][NMeAbu]S(tBu)[NMeV][d(β3hA)][NMeL])) | 32.3 | 28.2 | 1.24 | 1.24 10^-6 cm/sec | – | – | –
7 | CC[C@H]1C(=O)N(C)[C@@H](Cc2ccccc2)C(=O)N(C)[C@@H](CC(C)C)C(=O)N[C@@H](CC(C)C)C(=O)N(C)[C@@H](C(C)C)C(=O)N[C@H](C)CC(=O)N(C)CC(=O)N(C)[C@@H](C(C)C)C(=O)N(C)[C@@H](CC(C)C)C(=O)N(C)[C@@H](C)C(=O)N(C)[C@@H](CC(C)C)C(=O)N[C@@H]([C@@H](C)O)C(=O)N(C)CC(=O)N1C [pd140] (cyclo(L[NMeV][d(β3hA)][Sar][NMeV][NMeL][NMeA][NMeL]T[Sar][NMeAbu][NMeF][NMeL])) | 10.5 | 10.3 | 0.31 | 0.31 10^-6 cm/sec | – | – | –
8 | CC[C@H](C)[C@@H]1NC(=O)[C@H](CC(C)C)N(C)C(=O)[C@H](CC(C)C)NC(=O)CCN(C)C(=O)C[C@@H](C)N(C)C(=O)[C@H](CC(C)C)N(C)C(=O)CNC(=O)[C@@H]2CCCN2C(=O)[C@H](CC(C)C)N(C)C(=O)CCNC(=O)[C@H]([C@@H](C)CC)N(C)C(=O)[C@H](CCc2ccccc2)NC(=O)[C@H](Cc2ccccc2)N(C)C1=O [pd141] (cyclo(G[NMeL][NMedβ3hAla][NMeβAla]L[NMeL]I[NMeF][hPhe][NMeI][βAla][NMeL]P)) | – | – | – | – | 21.1 | 0.24 | 0.24 10^-6 cm/sec
9 | CC[C@H](C)[C@@H]1NC(=O)[C@H](CC(C)C)N(C)C(=O)[C@H](CC(C)C)NC(=O)CCN(C)C(=O)C[C@@H](C)N(C)C(=O)CN(C)C(=O)[C@H](CC(C)C)N(C)C(=O)[C@@H]2CCCN2C(=O)[C@H](CC(C)C)N(C)C(=O)[C@H](COC(C)(C)C)NC(=O)[C@H]([C@@H](C)CC)N(C)C(=O)[C@H](CCc2ccccc2)NC(=O)[C@H](Cc2ccccc2)N(C)C1=O [pd142] (cyclo(I[NMeF][hPhe][NMeI]S(tBu)[NMeL]P[NMeL][Sar][NMedβ3hAla][NMeβAla]L[NMeL])) | 31.7 | 33.9 | 0.71 | 0.71 10^-6 cm/sec | – | – | –
10 | CC[C@H](C)[C@@H]1NC(=O)[C@H](CC(C)C)N(C)C(=O)CCCN(C)C(=O)C[C@@H](C)N(C)C(=O)[C@H](CC(C)C)NC(=O)[C@H](CC)N(C)C(=O)[C@H](C(C)C)N(C)C(=O)[C@H](C)N(C)C(=O)[C@H](CC(C)C)N(C)C(=O)[C@H](COC(C)(C)C)NC(=O)[C@H](Cc2ccccc2)N(C)C(=O)[C@H](Cc2ccccc2)N(C)C(=O)CN(C)C1=O [pd143] (cyclo(I[Sar][NMeF][NMeF]S(tBu)[NMeL][NMeA][NMeV][NMeAbu]L[NMedβ3hAla][NMeGABA][NMeL])) | 39.3 | 21.0 | 4.73 | 4.73 10^-6 cm/sec | – | – | –
11 | CC[C@H](C)[C@@H]1NC(=O)[C@H](C)N(C)C(=O)[C@H]([C@@H](C)O)NC(=O)[C@H](CC(C)C)N(C)C(=O)[C@H](COC(C)(C)C)NC(=O)[C@H](Cc2ccccc2)N(C)C(=O)[C@H]([C@@H](C)CC)NC(=O)CNC(=O)[C@H](Cc2ccccc2)N(C)C(=O)[C@H](CC(C)C)N(C)C(=O)CCCN(C)C(=O)C[C@@H](C)N(C)C(=O)[C@H](CC(C)C)NC1=O [pd145] (cyclo(GI[NMeF]S(tBu)[NMeL]T[NMeA]IL[NMedβ3hAla][NMeGABA][NMeL][NMeF])) | 35.5 | 35.7 | 0.05 | 0.05 10^-6 cm/sec | – | – | –
12 | CC[C@@H]1NC(=O)[C@H](Cc2ccccc2)N(C)C(=O)[C@@H]2CCCN2C(=O)[C@H](CC(C)C)N(C)C(=O)[C@H](C(C)C)NC(=O)[C@H](CC(C)C)N(C)C(=O)[C@H]([C@@H](C)O)NC(=O)[C@H](Cc2ccccc2)N(C)C(=O)CN(C)C(=O)C[C@@H](C)N(C)C(=O)[C@H](C(C)C)NC(=O)[C@H](COC(C)(C)C)NC(=O)[C@H](C)N(C)C1=O [pd146] (cyclo([Abu][NMeA]S(tBu)V[NMedβ3hAla][Sar][NMeF]T[NMeL]V[NMeL]P[NMeF])) | 20.3 | 14.1 | 0.2 | 0.20 10^-6 cm/sec | – | – | –
13 | CC[C@H]1C(=O)N[C@@H](COC(C)(C)C)C(=O)N(C)[C@@H](C(C)C)C(=O)N(C)[C@@H](C)C(=O)N(C)[C@H](C)CC(=O)N[C@H](C(C)C)C(=O)N(C)[C@@H](CC(C)C)C(=O)N[C@@H](C)C(=O)N(C)[C@@H](C(C)C)C(=O)N(C)[C@@H](CC(C)C)C(=O)NCC(=O)N(C)[C@@H]([C@@H](C)O)C(=O)N(C)[C@@H](Cc2ccccc2)C(=O)N1C [pd147] (cyclo(A[NMeV][NMeL]G[NMeT][NMeF][NMeAbu]S(tBu)[NMeV][NMeA][NMedβ3hAla][dV][NMeL])) | 13.1 | 14.8 | 0.26 | 0.26 10^-6 cm/sec | – | – | –
